From US20160311791A1, “NOVEL TRICYCLIC CALCIUM SENSING RECEPTOR ANTOGONISTS FOR THE TREATMENT OF OSTEOPOSOSIS” (MERCK SHARP & DOHME CORP., priority 2013, published 2016)

Molecular target: T1, human CaSR (Homo sapiens, UniProt P41180)
T1 sequence (P41180 20-1078): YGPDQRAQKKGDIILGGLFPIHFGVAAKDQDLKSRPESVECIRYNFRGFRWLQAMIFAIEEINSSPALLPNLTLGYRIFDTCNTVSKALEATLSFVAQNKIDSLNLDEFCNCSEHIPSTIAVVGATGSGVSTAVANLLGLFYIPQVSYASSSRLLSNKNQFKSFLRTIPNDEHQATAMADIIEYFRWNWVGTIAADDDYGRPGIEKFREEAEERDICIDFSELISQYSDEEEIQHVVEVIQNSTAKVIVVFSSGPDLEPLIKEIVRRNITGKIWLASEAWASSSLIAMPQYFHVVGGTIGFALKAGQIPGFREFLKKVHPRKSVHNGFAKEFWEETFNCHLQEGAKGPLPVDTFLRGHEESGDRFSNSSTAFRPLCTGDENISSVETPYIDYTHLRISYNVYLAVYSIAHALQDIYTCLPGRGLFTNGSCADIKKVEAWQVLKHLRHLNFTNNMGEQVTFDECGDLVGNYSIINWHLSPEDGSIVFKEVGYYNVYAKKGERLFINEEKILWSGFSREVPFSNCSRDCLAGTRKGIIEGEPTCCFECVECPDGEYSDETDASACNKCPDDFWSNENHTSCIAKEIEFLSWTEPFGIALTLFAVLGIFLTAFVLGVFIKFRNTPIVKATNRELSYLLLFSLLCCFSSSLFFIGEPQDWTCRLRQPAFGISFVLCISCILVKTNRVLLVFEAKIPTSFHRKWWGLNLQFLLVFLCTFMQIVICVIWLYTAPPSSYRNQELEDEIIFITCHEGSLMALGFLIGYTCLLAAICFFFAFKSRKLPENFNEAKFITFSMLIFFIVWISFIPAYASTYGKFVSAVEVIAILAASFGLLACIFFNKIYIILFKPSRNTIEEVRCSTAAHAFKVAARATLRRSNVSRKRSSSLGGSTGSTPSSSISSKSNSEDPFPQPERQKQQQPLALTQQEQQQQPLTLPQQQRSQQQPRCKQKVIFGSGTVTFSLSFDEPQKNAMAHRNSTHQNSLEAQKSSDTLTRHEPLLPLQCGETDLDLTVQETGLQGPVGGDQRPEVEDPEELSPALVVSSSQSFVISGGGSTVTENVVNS
Assay: CaSR FLIPR assay (calcilytic activity)
Type: cell-based
Design: expressed in transfected cells
Settings: HEK293 cells stably expressing human recombinant CaSR; 1 mM CaCl2 agonist; Tables 1-24; read-out: FLIPR ASSAY IC50
Description: Procedures for CaSR FLIPR Assay
Calcilytic activity of the compound is measured in HEK293 cells stably expressing human recombinant CaSR (HEK-CaSR) using a FLIPR^TETRA device (Molecular Devices, Sunnyvale, Calif.) according to the manufacturer's directions. […] On the day of the assay, one vial of FLIPR Calcium 4 Assay Kit reagent Component A was equilibrated to room temperature. The content of the Component A vial was diluted by adding 10 ml dilution buffer (2×loading dye). The sample was mixed by vortexing (1-2 minutes) until the contents of the vial dissolved. The Component A vial mixture was diluted with 10 ml dilution buffer. Media was aspirated from the cells and 80 μl of loading buffer was added to each well. Plates were incubated for 1 hour at 37° C. and then placed at room temperature for 10 minutes. A two-stage method of generating 10-point serial dilutions was used. Compound was serially diluted in 100% DMSO (10 point, 3-fold dilution of each compound from 2 mM in 100% DMSO). 3 μl of serially diluted compound was transferred into a second assay microplate that contained 97 μl of TETRA dilution buffer (20 mM HEPES pH7.4, 1×HBSS without Ca and Mg, 0.4 mM CaCl2, 0.4 mM MgSO4, 0.5 mM MgCl2) to create the intermediate dilution plate. After reading the base line, the compounds in 0.5% DMSO in dilution buffer were added to their respective wells as 20 μl aliquots at 6×the final drug concentration. The fluorescence signals were then read. Subsequently, 20 μl of 3.6 mM of CaCl2 agonist (1 mM final concentration) was added to each well. For background, 20 μl of TETRA dilution buffer was added instead. The protocol consisted of a pre-addition read of 10 frames (10×1 frame/sec), a post 1st addition read of 100 frames (60×1 frame/sec, 40×1 frame/3 sec), pause 3 min, a post 2nd addition read of 100 frames (60×1 frame/sec, 40×1 frame/3 sec) on a FLIPR^TETRA Plate Reader.

| SMILES | IC50 |
| --- | --- |
| Cc1ccc([C@@H](C)OC[C@H](O)CNC(C)(C)CSc2ccc(F)cc2)c2c1O[C@@H]1[C@@H](C(=O)O)[C@H]21 [Example 8-32] | 1410 nM |
| Cc1ccc([C@@H](C)OC[C@H](O)CNC(C)(C)Cc2ccc3c(c2)CCS3(=O)=O)c2c1O[C@@H]1[C@@H](C(=O)O)[C@H]21 [Example 8-27] | > 10000 nM |
| Cc1ccc([C@@H](C)OC[C@H](O)CN2CCCC2Cc2ccccc2)c2c1O[C@@H]1[C@@H](C(=O)O)[C@H]21 (stereo partly shown) [Example 8-8] | 489 nM |
| Cc1ccc(CC(C)(C)NC[C@@H](O)CO[C@H](C)c2cccc3c2O[C@@H]2[C@@H](C(=O)O)[C@H]32)cc1C [Example 1-5] | 230 nM |
| Cc1ccc([C@@H](C)OC[C@H](O)CNC(C)(C)CSCc2ccccc2)c2c1O[C@@H]1[C@@H](C(=O)O)[C@H]21 [Example 8-29] | 500 nM |
| Cc1ccc([C@@H](C)OC[C@H](O)CNC(C)(C)CC2Cc3ccccc3C2)c2c1O[C@H]1[C@H](C(=O)O)[C@@H]21 [Example 9-3] | 46 nM |
| C[C@@H](OC[C@H](O)CNC(C)(C)Cc1ccc(Cl)cc1F)c1cccc2c1O[C@H]1[C@H](C(=O)O)[C@@H]21 [Example 2-6] | 730 nM |
| C[C@@H](OC[C@H](O)CNC(C)(C)CN1CCc2ccccc2C1)c1cccc2c1O[C@H]1[C@H](C(=O)O)[C@@H]21 [Example 2-8] | 7390 nM |
| CSc1ccc(CC(C)(C)NC[C@@H](O)CO[C@H](C)c2cccc3c2O[C@@H]2[C@@H](C(=O)O)[C@H]32)cc1F [Example 1-17] | 165 nM |
| CSc1ccc(CC(C)(C)NC[C@@H](O)CO[C@H](C)c2cccc3c2O[C@H]2[C@H](C(=O)O)[C@@H]32)cc1F [Example 2-9] | 830 nM |
| C[C@@H](OC[C@H](O)CNC(C)(C)Cc1ccc2c(c1)OCO2)c1cccc2c1[C@@H]1[C@H](O2)[C@H]1C(=O)O [Example 5-8] | 160 nM |
| C[C@@H](OC[C@H](O)CNC(C)(C)Cc1ccc2c(c1)OCCO2)c1cccc2c1[C@@H]1[C@H](O2)[C@H]1C(=O)O [Example 5-10] | 153 nM |
| C[C@@H](OC[C@H](O)CNC(C)(C)C(=O)N1CCc2ccccc2C1)c1cccc2c1O[C@H]1[C@H](C(=O)O)[C@@H]21 [Example 2-7] | ≥ 10000 nM |

The remaining lines, values ahead:

| IC50 | SMILES |
| --- | --- |
| 15 nM | Cc1ccc([C@@H](C)OC[C@H](O)CNC(C)(C)Cc2ccc3c(c2)CCC3)c2c1O[C@@H]1[C@@H](C(=O)O)[C@H]21 [Example 8-10] |
| 108 nM | COc1ccc(CC(C)(C)NC[C@@H](O)CO[C@H](C)c2cccc3c2[C@@H]2[C@H](O3)[C@H]2C(=O)O)c(F)c1 [Example 5-11] |
| 132 nM | C[C@@H](OC[C@H](O)CNC(C)(C)Cc1ccc2ccccc2c1)c1cccc2c1O[C@H]1[C@H](C(=O)O)[C@@H]21 [Example 2-1] |
| 53 nM | CSc1ccc(CC(C)(C)NC[C@@H](O)CO[C@H](C)c2cccc3c2[C@@H]2[C@H](O3)[C@H]2C(=O)O)cc1Cl [Example 5-18] |
| 42 nM | Cc1ccc([C@@H](C)OC[C@H](O)CNC(C)(C)Cc2ccc3occc3c2)c2c1O[C@@H]1[C@@H](C(=O)O)[C@H]21 [Example 8-7] |
| 39 nM | C[C@@H](OC[C@H](O)CNC(C)(C)Cc1ccc(Cl)c(Cl)c1)c1cccc2c1[C@@H]1[C@H](O2)[C@H]1C(=O)O [Example 5-12] |
| 23 nM | C[C@@H](OC[C@H](O)CNC(C)(C)Cc1ccc2sccc2c1)c1cccc2c1[C@@H]1[C@H](O2)[C@H]1C(=O)O [Example 5-9] |
| 90 nM | Cc1ccc([C@@H](C)OC[C@H](O)CNC(C)(C)CCOc2ccccc2)c2c1O[C@@H]1[C@@H](C(=O)O)[C@H]21 [Example 8-17] |
| 96 nM | Cc1ccc([C@@H](C)OC[C@H](O)CNC(C)(C)Cc2cc3ccccc3s2)c2c1O[C@@H]1[C@@H](C(=O)O)[C@H]21 [Example 8-6] |
| 47 nM | C[C@@H](OC[C@H](O)CNC(C)(C)Cc1ccc2occc2c1)c1cccc2c1[C@@H]1[C@H](C2)[C@H]1C(=O)O [Example 13-2] |
| 17 nM | Cc1cc(Cl)c([C@@H](C)OC[C@H](O)CNC(C)(C)Cc2ccc3occc3c2)c2c1O[C@@H]1[C@@H](C(=O)O)[C@H]21 [Example 16-2] |
| 22 nM | COc1ccc(CC(C)(C)NC[C@@H](O)CO[C@H](C)c2ccc(C)c3c2[C@@H]2[C@H](O3)[C@H]2C(=O)O)c(Cl)c1 [Example 8-28] |
| 14 nM | Cc1ccc([C@@H](C)OC[C@H](O)CNC(C)(C)Cc2ccc(Cl)c(Cl)c2)c2c1O[C@@H]1[C@@H](C(=O)O)[C@H]21 [Example 8-15] |
| 77 nM | Cc1ccc([C@@H](C)OC[C@H](O)CNC(C)(C)Cc2ccc(Cl)cc2Cl)c2c1O[C@H]1[C@H](C(=O)O)[C@@H]21 [Example 9-9] |
| 42 nM | Cc1ccc([C@@H](C)OC[C@H](O)CNC(C)(C)Cc2ccc(Cl)c(Cl)c2)c2c1O[C@H]1[C@H](C(=O)O)[C@@H]21 [Example 9-10] |
| 35.5 nM | C[C@@H](OC[C@H](O)CNC(C)(C)CC1Cc2ccccc2C1)c1cccc2c1[C@@H]1[C@H](O2)[C@H]1C(=O)O [Example 5-3] |
| 25 nM | C[C@@H](OC[C@H](O)CNC(C)(C)Cc1ccc2c(c1)CCC2)c1cccc2c1[C@@H]1[C@H](O2)[C@H]1C(=O)O [Example 5-7] |
| 27 nM | CSc1ccc(CC(C)(C)NC[C@@H](O)CO[C@H](C)c2cccc3c2[C@@H]2[C@H](O3)[C@H]2C(=O)O)cc1F [Example 5-14] |
